Measured values: US20260027073A1, “USE OF SMALL-MOLECULE COMPOUND HAVING NAPHTHYLAMINE STRUCTURE” (HANGZHOU PHECDAMED CO., LTD., priority 2023, published 2026)

Key:
APP/PS1 mice = experiment: Cognitive dysfunction in APP/PS1 mice; assay type: in vivo
Experimental: Male transgenic APP/PS1 mice were purchased from the Model Animal Research Center of Nanjing University, and after being raised to 12 weeks old, the APP/PS1 mice were divided into three groups: normal C57 group (WT), model control group (APP/PS1+Vehicle), and TJ01-013 treatment group (APP/PST+TJ01-013). The mode of administration was by oral gavage, normal group and model control group were administered vehicle by oral gavage, the concentration of TJ01-013 was 30 mg/kg, the gavage volume was 5 ml/kg, the frequency of administration was once a day, and the administration period was 3 months. • (2) Water maze experiment
The water maze device is a circular pool (140 cm in diameter) filled with dissolved titanium dioxide water, keeping the water temperature at 22° C. A platform with a diameter of 12 cm was placed at a fixed position 1 cm below the water surface, and the mice were trained in four quadrants every day for five consecutive days. Each quadrant lasted 60 seconds or until the mice found the platform. […] All parameters were recorded by a video tracking system.
Mouse heart perfusion for brain extraction: APP/PS1 mice and control C57BL/6J mice were anesthetized, and after they became unconscious, the limbs were fixed on a dissection table in a fuming hood, and the abdominal skin was cut with scissors after alcohol disinfection to expose the liver. The diaphragm was quickly cut, and the heart was exposed by turning upward after clamping the xiphoid with hemostatic forceps. Prepared PBS was injected into the left ventricle, noting that the direction was toward the aorta. The peristaltic pump was turned on after opening the right auricle and the blood was drained at a low rate at first. When the heart stopped beating or the fluid pumped at the right auricle was clarified and colorless, the mouse liver can be seen to turn grayish white. The fur was cut open along the midline of the mouse hindbrain with scissors, and the skull was exposed, then forceps were inserted from the criss-cross of the mouse's brain shell, and scissors were used to assist in peeling off the skull, and then the intact whole brain was removed. The fresh mouse whole brain was halved and placed in a 5 mL centrifuge tube, and 4 mL of 4% paraformaldehyde fixative was added to fix for 24 h, sections were made for antigenic repair, incubated for 30 min with dropwise adding of BSA at a concentration of 3-5%, and stained overnight with polyclonal rabbit anti-GFAP antibody (1:100) and mouse anti-β-amyloid protein 1-16 antibody (1:100), and after the sections were washed in PBS three times, the corresponding fluorescent secondary antibody was added dropwise to cover the tissue, and the sections were incubated in dark for 1 h, the slides were washed and stained with DAPI staining solution added dropwisely for 10 min, and the sections were sealed with resin sealer, and finally imaged with Cytation3.
Mouse brain tissue homogenates were prepared according to the brain tissue homogenization method described in the Life Technologies ELISA Technical Guide. […]

[1] = test system: mouse bone marrow mesenchymal stem cells; experiment: Senescence of mouse bone marrow mesenchymal stem cells by passaging; assay type: cell-based; conditions: 10 μM
Experimental: Extraction of bone marrow mesenchymal stem cells: C57 mice weighing about 25 g were selected, and after anesthesia with 30 mg/kg chloral hydrate, the femur and tibia were removed and put into a Petri dish, one end of the femur and tibia were cut off to fully expose the bone marrow cavity, and a 1 ml syringe was used to extract the DMEM/F12 medium, and the tip of the needle was pricked into the bone marrow cavity to rinse the bone marrow, and a 15 ml centrifuge tube was connected underneath to make the rinsed liquid flow into the centrifuge tube, and the rinsing was repeated several times until the bone marrow cavity was rinsed clean. The rinsed suspension was blown repeatedly with a pipette to make the cells in the rinsed liquid as single-cell as possible, and the supernatant was transferred to another tube after standing still for a few minutes, and the cell suspension was continued to blow to make the cells well dispersed. The obtained cell suspension was centrifuged at 1000 rpm for 5 min, and after removing the residual supernatant, 1 ml of DMEM/F12 medium was added, and after repeated blowing, the CD45-Sca-1+PDGFRα+high-purity primary mouse bMSC cell line was sorted out by flow cytometric sorting, and the sorted cells were dispensed into culture flasks. The cells were observed under the microscope and placed in the incubator at 37° C., 5% CO2 to incubate, and the solution was replaced for 72 h, the drug administration treatment was performed at the first passaging, and then 10 μM TJ01-013 was given to each passaging thereafter, labeled as Con-Y at the 2nd generation, and labeled as Con-O at the 9th generation, and the drug administration treatment groups were given until the 9th generation, and all the cells were placed under the microscope for observing the morphology of the cells, and the proportion of the SA-β-gal+ cells was counted. The levels of the DNA damage marker γ-H2AX and the heterochromatin modification H3K9me3 after TJ01-013 treatment were detected by immunofluorescence technique (procedure described previously).

[2] = test system: Mesenchymal stem cells (MSC) differentiated from normal human pluripotent stem cells (iPSC); experiment: Senescence of normal human derived mesenchymal stem cells; assay type: cell-based; conditions: 10 μM
Experimental: Mesenchymal stem cells (MSC) differentiated from normal human pluripotent stem cells (iPSC) were taken for culture, and the experiment was divided into three groups: young cells cultured for 6 generations, labeled as Con-Y; senescent cells cultured for 16 generations, labeled as Con-O; and the administration group, to which 10 μM TJ01-013 was added during the process of culture, similarly cultured up to the 16th generation, and labeled as Con-O+TJ01-013, and after the end of the treatment, all cells were placed under the microscope to observe the morphology of the cells, and the percentage of SA-β-gal+ cells was count. The levels of the DNA damage marker γ-H2AX and the heterochromatin modification H3K9me3 after TJ01-013 treatment were detected by immunofluorescence technique (procedure described previously).

## O=C(O)C[S+]([O-])c1cc(NS(=O)(=O)c2ccc(Br)cc2)c2ccccc2c1O (centres unmarked) [I-1]
APP/PS1 mice; 30 mg/kg oral gavage, 3 months, FIG. 42
  time to find the platform (water maze): significantly reduced
APP/PS1 mice; FIG. 44
  astrocyte activation in the hippocampal region (GFAP): significantly reduced
  number and size of Aβ plaques: significant decrease
APP/PS1 mice; FIG. 45
  amount of Aβ in the brain tissues (Elisa): significantly decreased
APP/PS1 mice; vs APP/PS1 Vehicle group, FIG. 43
  number of crossing over the platform (water maze): significantly larger
[1]; 9th generation, vs Con-O, FIG. 48
  percentage of SA-β-gal+ cells: significantly decreased
[1]; Con-O cells, FIG. 50
  expression level of heterochromatin-modified H3K9me3: restored its expression level to some extent
[1]; aged cells, FIG. 49
  level of DNA damage marker γ-H2AX: significantly reduced
[2]; 16th generation, vs Con-O, FIG. 51
  percentage of SA-β-gal-positive cells: significantly decreased
[2]; FIG. 52
  level of DNA damage marker γ-H2AX: significantly reduced
[2]; FIG. 53
  expression level of heterochromatin-modified H3K9me3: restored its expression level to some extent
